Assay results: US9216980B2, “Methods of use of diazacarbazoles for treating cancer” (Genentech, Inc., priority 2008, dated 2015)

System: HT-29
Test: Cellular assay (checkpoint abrogation), phospho-Histone H3
Type: cell-based
Details: Homo sapiens; HT-29 cells, 20 nM SN-38 for 16 h, then 300 nM nocodazole plus compound for 24 h; phospho-Histone H3 levels; read-out: EC50 in the assay described in EXAMPLE ii
Method: Compounds are tested in a cellular assay using the human colorectal adenocarcinoma derived cell line HT-29 (ATCC HTB-38).
The cell line is maintained in DMEM/F12 (1:1) media (Invitrogen Gibco, #31331) supplemented with 10% FCS at 37° C. in a 5% CO2 humidified incubator.
Cells are seeded in 96-well plates at 30,000 cells/well and after 24 h they are exposed to 20 nM SN-38 in 0.4% DMSO. One column of 8 wells on each plate was used to generate a maximum signal control. These cells are treated with 0.4% DMSO without SN-38. Cells are grown for a further 16 h, then the media containing DMSO plus or minus SN-38 is removed and replaced with media containing 300 nM nocodazole alone (to determine baseline) or in combination with ten concentrations of chk1 inhibitor (final DMSO concentration is 0.4%). Cells are grown for a further 24 h. The media is removed and replaced with 50 μl lysis buffer containing protease inhibitors and phosphatase inhibitors. This buffer contains detergent to bring about cellular disruption. […] Following the transfer of lysate to the MSD plate, Histone H3 in the lysate is captured on the coated antibody by incubation at room temperature for 2 h. Following the capture step the plate is washed and then incubated with an antibody to phosphorylated Histone H3 which is conjugated with a Sulfo-Tag. This tag gives a signal when in proximity to the electrode on the base of the MSD plate. Binding the tagged antibody to the captured protein allow detection on a MSD reader.
EC50 values are calculated using the XLfit software package (version 2.0.5) or Graphpad Prism, (version 3.03) fitting a sigmoidal curve with a variable slope.

EC50 [µM]	SMILES
< 10	CN1CCC(c2ccc(-c3cnc4[nH]c5cnc(C#N)cc5c4c3)cc2)CC1 [Example 1, 3-[4-(1-Methyl-piperidin-4-yl)-phenyl]-9H-dipyrido[2,3-b;4′,3′-d]pyrrole-6-carbonitrile]
< 10	Cn1ccc(-c2cnc3[nH]c4cnc(C#N)cc4c3c2)n1 [Example 80, 3-(1-Methyl-1H-pyrazol-3-yl)-9H-dipyrido[2,3-b;4′,3′-d]pyrrole-6-carbonitrile]
< 10	N#Cc1cc2c(cn1)[nH]c1ncc(C#CC3CCCNC3)cc12 (centres unmarked) [Example 119, 3-Piperidin-3-ylethynyl-9H-dipyrido[2,3-b;4′,3′-d]pyrrole-6-carbonitrile]
< 10	CN1CCN(c2ccc(-c3cnc4[nH]c5cnc(C#N)cc5c4c3)cc2)CC1 [Example 125, 3-[4-(4-Methyl-piperazin-1-yl)-phenyl]-9H-dipyrido[2,3-b;4′,3′-d]pyrrole-6-carbonitrile]
< 10	N#Cc1cc2c(cn1)[nH]c1ncc(-c3cnn(CCN4CCOCC4)c3)cc12 [Example 127, 3-[1-(2-Morpholin-4-yl-ethyl)-1H-pyrazol-4-yl]-9H-dipyrido[2,3-b;4′,3′-d]pyrrole-6-carbonitrile]
< 10	CC(C)Oc1ccc(-c2cnc3[nH]c4cnc(C#N)cc4c3c2)cc1 [Example 135, 3-(4-Isopropoxy-phenyl)-9H-dipyrido[2,3-b;4′,3′-d]pyrrole-6-carbonitrile]
< 10	CC(=O)Nc1cccc(-c2cnc3[nH]c4cnc(C#N)cc4c3c2)c1 [Example 138, N-[3-(6-Cyano-9H-dipyrido[2,3-b;4′,3′-d]pyrrol-3-yl)-phenyl]-acetamide]
< 10	N#Cc1cc2c(cn1)[nH]c1ncc(-c3ccc(CO)cc3)cc12 [Example 157, 3-(4-Hydroxymethyl-phenyl)-9H-dipyrido[2,3-b;4′,3′-d]pyrrole-6-carbonitrile]
< 10	N#Cc1cc2c(cn1)[nH]c1ncc(-c3cccs3)cc12 [Example 160, 3-Thiophen-2-yl-9H-dipyrido[2,3-b;4′,3′-d]pyrrole-6-carbonitrile]
< 10	N#Cc1cc2c(cn1)[nH]c1ncc(-c3cccc(N)c3)cc12 [Example 166, 3-(3-Amino-phenyl)-9H-dipyrido[2,3-b;4′,3′-d]pyrrole-6-carbonitrile]
< 10	COc1ccc(-c2cnc3[nH]c4cnc(C#N)cc4c3c2)cc1OC [Example 176, 9H-dipyrido[2,3-b;4′,3′-d]pyrrole-6-carbonitrile]
< 10	CC(=O)Nc1ccc(-c2cnc3[nH]c4cnc(C#N)cc4c3c2)cc1 [Example 186, N-[4-(6-Cyano-9H-dipyrido[2,3-b;4′,3′-d]pyrrol-3-yl)-phenyl]-acetamide]
< 10	CS(=O)(=O)c1cccc(-c2cnc3[nH]c4cnc(C#N)cc4c3c2)c1 [Example 188, 3-(3-Methanesulfonyl-phenyl)-9H-dipyrido[2,3-b;4′,3′-d]pyrrole-6-carbonitrile]
< 10	CN(C)S(=O)(=O)c1cccc(-c2cnc3[nH]c4cnc(C#N)cc4c3c2)c1 [Example 190, 3-(6-Cyano-9H-dipyrido[2,3-b;4′,3′-d]pyrrol-3-yl)-N,N-dimethyl-benzenesulfonamide]
< 10	N#Cc1cc2c(cn1)[nH]c1ncc(Cl)cc12 [Example 214, 3-Chloro-9H-dipyrido[2,3-b;4′,3′-d]pyrrole-6-carbonitrile]
< 10	c1cn(-c2cc3c(cn2)[nH]c2ncc(-c4ccc(CN5CCCCC5)cc4)cc23)cn1 [Example 366, 3-(4-Piperidin-1-ylmethyl-phenyl)-6-(1H-imidazol-1-yl)-9H-dipyrido[2,3-b;4′,3′-d]pyrrole]
< 10	Cn1nncc1-c1cc2c(cn1)[nH]c1ncc(-c3ccc(CN4CCCCC4)cc3)cc12 [Example 368, 6-(1-Methyl-1H-1,2,3-triazol-5-yl)-3-(4-piperidin-1-ylmethyl-phenyl)-9H-dipyrido[2,3-b;4′,3′-d]pyrrole]
